In ChEMBL document CHEMBL4043194, “Nrf2 activators from Glycyrrhiza inflata and their hepatoprotective activities against CCl4-induced liver injury in mice” (Bioorg Med Chem, 2017):

How the values were obtained:
Assay type in all cases: cell-based
[1] = target: T1, Nuclear factor erythroid 2-related factor 2 (Homo sapiens) (UniProt Q16236); test: Activation of Nrf2 (unknown origin) expressed in human HepG2 cells at 10 uM incubated for 6 hrs by ARE-driven luciferase reporter gene assay relative to untreated control
T1 sequence (whole entry): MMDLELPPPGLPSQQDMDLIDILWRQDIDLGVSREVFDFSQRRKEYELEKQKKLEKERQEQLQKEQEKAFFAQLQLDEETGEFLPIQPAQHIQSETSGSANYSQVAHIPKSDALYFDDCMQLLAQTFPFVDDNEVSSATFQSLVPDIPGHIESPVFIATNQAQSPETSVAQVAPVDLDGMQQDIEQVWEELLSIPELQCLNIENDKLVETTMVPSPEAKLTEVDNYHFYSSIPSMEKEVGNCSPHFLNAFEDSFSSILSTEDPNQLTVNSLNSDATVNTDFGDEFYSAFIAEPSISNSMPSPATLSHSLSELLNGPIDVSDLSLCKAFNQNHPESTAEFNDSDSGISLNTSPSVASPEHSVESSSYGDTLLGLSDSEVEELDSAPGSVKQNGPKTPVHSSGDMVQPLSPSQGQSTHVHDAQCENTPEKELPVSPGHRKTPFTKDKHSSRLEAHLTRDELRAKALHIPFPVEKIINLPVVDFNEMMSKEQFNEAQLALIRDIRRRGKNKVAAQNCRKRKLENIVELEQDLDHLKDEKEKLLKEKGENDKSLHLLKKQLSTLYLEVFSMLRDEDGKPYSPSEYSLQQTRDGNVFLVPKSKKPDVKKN

[2] = target: T1, Nuclear factor erythroid 2-related factor 2 (Homo sapiens); test: Activation of Nrf2 (unknown origin) expressed in human HepG2 cells at 2.5 to 10 uM incubated for 6 hrs by ARE-driven luciferase reporter gene assay
HepG2 [3] = test: Cytotoxicity in human HepG2 cells expressing Nrf2/ARE-driven luciferase at 10 to 40 uM incubated for 6 hrs; settings: hepg2, 6 h
[4] = target: T1, Nuclear factor erythroid 2-related factor 2 (Homo sapiens); test: Activation of Nrf2 (unknown origin) expressed in human HepG2 cells at 2.5 to 20 uM incubated for 6 hrs by ARE-driven luciferase reporter gene assay
HepG2 [5] = test: Cytotoxicity in human HepG2 cells expressing Nrf2/ARE-driven luciferase at 20 to 40 uM incubated for 6 hrs; settings: hepg2, 6 h

SMILES	fold change (FC) [1]	further results
CC(C)=CCc1cc(/C=C/C(=O)c2ccc(O)c(CC=C(C)C)c2O)ccc1O	1.22	–
COC(C)(C)c1cc2cc3c(=O)cc(-c4ccc(O)c(CC=C(C)C)c4)oc3cc2o1	1.54	–
CC1(C)C=Cc2c(ccc(-c3coc4cc(O)ccc4c3=O)c2O)O1	1.4	–
COc1ccc2c(c1)OC[C@H]1c3ccc(O)cc3O[C@@H]21	1.23	–
O=C1c2c(O)cc(O)cc2OCC1c1ccc(O)cc1 (centres undefined)	1.72	–
COc1c(/C=C/C(=O)c2ccc(O)c(CC=C(C)C)c2)ccc(O)c1O [LICOCHALCONE D]	4.53	Activity [4]: Dose-dependent effect; Activity (HepG2 [5]): Toxic
O=C(/C=C/c1ccc(O)c(O)c1)c1ccc(O)c(O)c1	1.85	–
CC(C)=CCc1cc2c(=O)cc(-c3ccc4c(c3)C=CC(C)(C)O4)oc2cc1O	1.03	–
CC1(C)C=Cc2cc(/C=C/C(=O)c3ccc(O)cc3O)ccc2O1	2.37	–
COc1c(/C=C/C(=O)c2ccc(O)c(O)c2)ccc(O)c1CC=C(C)C	2.07	–
O=C1C[C@@H](c2cc(O)cc(O)c2)Oc2cc(O)ccc21	1.54	–
CC1(C)C=Cc2c(ccc3c(=O)c(-c4ccc(O)cc4O)coc23)O1	1.76	–
C=CC(C)(C)c1cc(/C=C/C(=O)c2ccc(O)c(O)c2)c(OC)cc1O	5.98	Activity [2]: Dose-dependent effect; Activity (HepG2 [3]): Toxic
CC1(C)C=Cc2cc(-c3coc4cc(O)ccc4c3=O)c(O)cc2O1	2.3	–
CC1(C)C=Cc2c(O)ccc(C3COc4cc(O)cc(O)c4C3=O)c2O1 (centres undefined)	1.42	–
CC1(C)[C@@H](O)CC[C@]2(C)[C@H]3CC=C4[C@@H]5C[C@@](C)(C(=O)O)CC[C@]5(C)CC[C@@]4(C)[C@]3(C)CC[C@@H]12	1.43	–
CC(C)=CCc1cc([C@@H]2CC(=O)c3c(O)cc(O)c(CC=C(C)C)c3O2)ccc1O	1.41	–

SMILES	fold change (FC) [1]	further results
CC(C)=CCc1c(O)ccc([C@H]2COc3cc(O)c(CC=C(C)C)c(O)c3C2=O)c1O	1.98	–
O=C1c2ccc(O)cc2OCC1c1ccc(O)c(O)c1 (centres undefined)	2.12	–
CC(C)=CCc1cc(-c2cc(=O)c3cc4c(cc3o2)OC(C)(C)C=C4)ccc1O	1.73	–
C=C(C)[C@H](C)c1cc(/C=C/C(=O)c2ccc(O)cc2)c(OC)cc1O [LICOCHALCONE E]	5.94	Activity [2]: Dose-dependent effect; Activity (HepG2 [3]): Toxic
C=CC(C)(C)c1cc(/C=C/C(=O)c2ccc(O)cc2)c(OC)c(O)c1O	3.09	Activity [4]: Dose-dependent effect; Activity (HepG2 [5]): Toxic
CC(C)=CCc1cc(/C=C/C(=O)c2ccc(O)cc2O)ccc1O	1.87	–
O=C1C[C@@H](c2ccc(O)cc2)Oc2cc(O)ccc21	1.97	–
CC1(C)C=Cc2c(ccc3c2OC[C@@H](c2ccc(O)cc2O)C3)O1	2.58	–
CC(C)=CCc1cc(C2CC(=O)c3ccc(O)c(CC=C(C)C)c3O2)ccc1O (centres undefined)	1.21	–
CC1(C)C(=O)CC[C@]2(C)[C@H]3C(=O)C=C4[C@@H]5C[C@@](C)(C(=O)O)CC[C@]5(C)CC[C@@]4(C)[C@]3(C)[C@@H](O)C[C@@H]12	1.18	–
COc1ccc(C2COc3c(cc(CC=C(C)C)c(O)c3O)C2=O)cc1 (centres undefined)	1.06	–
O=c1cc(-c2ccc(O)cc2)oc2cc(O)ccc12	1.23	–
CC1(C)C=Cc2c(ccc(-c3cc4ccc(O)cc4o3)c2O)O1	1.08	–
CC(C)=CCc1cc([C@@H]2CC(=O)c3cc(CC=C(C)C)c(O)cc3O2)ccc1O	1.59	–
O=C(/C=C/c1ccc(O)cc1)c1ccc(O)cc1O	4.67	–
CC(C)=CCc1c(O)ccc2c1O[C@H](c1ccc3c(c1)C=CC(C)(C)O3)CC2=O	1.4	–
CC(C)=CCc1cc([C@@H]2CC(=O)c3ccc(O)cc3O2)cc2c1OC(C)(C)C=C2	1.84	–

Now from value to compound, other results behind:

fold change (FC) [1]	SMILES	further results
3.39	COc1c(/C=C/C(=O)c2ccc(O)cc2)cc(CC=C(C)C)c(O)c1O	Activity [2]: Dose-dependent effect; Activity (HepG2 [3]): Toxic
1.05	CC(C)=CCc1c(O)ccc(-c2coc3cc(O)c(CC=C(C)C)c(O)c3c2=O)c1O	–
1.05	CC(C)=CCc1cc2c(=O)cc(-c3ccc(O)cc3)oc2cc1O	–
1.21	CC(C)=CCc1c(O)c(CC=C(C)C)c2occ(-c3ccc(O)cc3)c(=O)c2c1O	–
2.15	CC(C)=CCc1c(O)ccc(-c2coc3cc(O)ccc3c2=O)c1O	–
2.98	CC(C)=CCc1cc(-c2cc(=O)c3c(O)c(CC=C(C)C)c(O)cc3o2)ccc1O	–
0.76	CC1(C)C=Cc2cc(-c3coc4cc(O)cc(O)c4c3=O)ccc2O1	–
1.98	CC(C)=CCc1c(O)ccc(-c2coc3c(CC=C(C)C)c(O)cc(O)c3c2=O)c1O	–
1.2	CC(C)=CCc1cc(-c2coc3c(CC=C(C)C)c(O)cc(O)c3c2=O)cc(O)c1O	–
1.78	CC(C)=CCc1c(O)cc(O)c2c(=O)c(-c3ccc(O)cc3O)coc12	–
1.91	CC(C)=CCc1c(O)ccc(C(=O)/C=C/c2ccc(O)cc2)c1O	–
1.46	CC(C)=CCc1c(O)c(CC=C(C)C)c2oc(-c3ccc(O)cc3)cc(=O)c2c1O	–
2.17	CC1(C)C=Cc2c(cc3occ(-c4ccc(O)cc4)c(=O)c3c2O)O1	–
1.12	COc1cc(-c2coc3cc(O)ccc3c2=O)ccc1O	–
1.81	CC(C)=CCc1c(O)ccc2c1oc1c3ccc(O)cc3oc(=O)c21	–
1.91	CC(C)=CCc1cc(-c2coc3cc(O)cc(O)c3c2=O)cc(O)c1O	–
2.36	COc1cc2occ(-c3ccc(O)cc3O)c(=O)c2c(O)c1CC=C(C)C	–
1.42	COc1ccc(-c2coc3c(O)c(O)c(CC=C(C)C)cc3c2=O)c(O)c1	–
2.76	CC1(CO)C=Cc2c(ccc(-c3coc4cc(O)ccc4c3=O)c2O)O1 (centres undefined)	–

fold change (FC) [1]	SMILES	further results
1.49	CC(C)=CCc1c(O)cc2occ(-c3ccc(O)cc3)c(=O)c2c1O	–
2.65	COc1ccc(-c2coc3cc(O)ccc3c2=O)cc1	–
1.47	CC1(C)C=Cc2c(ccc(-c3coc4cc(O)cc(O)c4c3=O)c2O)O1	–
1.88	CC(C)=CCc1c(O)cc(O)c2c1OC[C@@H](c1ccc3c(c1O)C=CC(C)(C)O3)C2=O	–
1.56	CC(C)=CCc1c(O)ccc(C(=O)/C=C/c2ccc(O)c(O)c2)c1O	–
1.37	CC(C)=CCc1c(O)cc2occ(-c3ccc4c(c3O)C=CC(C)(C)O4)c(=O)c2c1O	–
1.42	COc1c(/C=C/C(=O)c2ccc(O)cc2)ccc(O)c1CC=C(C)C	–
1.87	COc1cc(O)c(-c2coc3cc(O)ccc3c2=O)c(OC)c1CC=C(C)C	–
2.49	CC(C)=CCc1c(O)ccc(-c2coc3cc(O)cc(O)c3c2=O)c1O	–
1.34	CC(C)=CCc1c(O)cc2occ(-c3ccc4c(c3)C=CC(C)(C)O4)c(=O)c2c1O	–
1.56	CC(C)=CCc1c(O)cc(O)c2c(=O)c(-c3ccc4c(c3O)C=CC(C)(C)O4)coc12	–
1.13	CC1(C)C=Cc2cc(-c3coc4cc(O)cc(O)c4c3=O)cc(O)c2O1	–
1.51	CC(C)=CCc1c(O)cc2occ(-c3cc(O)c4c(c3)C=CC(C)(C)O4)c(=O)c2c1O	–
2.28	COc1ccc(-c2coc3cc(O)ccc3c2=O)c(O)c1	–
2.2	CC(C)=CCc1cc([C@@H]2CC(=O)c3ccc(O)cc3O2)ccc1O	–
1.2	O=c1c(-c2ccc(O)cc2)coc2cc(O)cc(O)c12	–
4.34	CC(C)=CCc1c(O)ccc(-c2cc3ccc(O)cc3o2)c1O [2'-O-DEMETHYLBIDWILLOL B]	Activity [4]: Dose-dependent effect; Activity (HepG2 [5]): Toxic
2.33	CC(C)=CCc1c(O)cc2c(c1O)C(=O)[C@H](c1ccc3c(c1O)C=CC(C)(C)O3)CO2	–
1.7	CC1(C)C=Cc2c(O)ccc(-c3coc4cc(O)cc(O)c4c3=O)c2O1	–
